{
  "source": "ChEMBL document CHEMBL1142415",
  "about": "“5-tert-butyl-N-pyrazol-4-yl-4,5,6,7-tetrahydrobenzo[d]isoxazole-3-carboxamide derivatives as novel potent inhibitors of Mycobacterium tuberculosis pantothenate synthetase: initiating a quest for new antitubercular drugs” (J Med Chem, 2008)",
  "key": {"[1]": {"biological_target": "T1, Pantothenate synthetase (Mycobacterium tuberculosis) (UniProt P9WIL5)", "T1 sequence (whole entry)": "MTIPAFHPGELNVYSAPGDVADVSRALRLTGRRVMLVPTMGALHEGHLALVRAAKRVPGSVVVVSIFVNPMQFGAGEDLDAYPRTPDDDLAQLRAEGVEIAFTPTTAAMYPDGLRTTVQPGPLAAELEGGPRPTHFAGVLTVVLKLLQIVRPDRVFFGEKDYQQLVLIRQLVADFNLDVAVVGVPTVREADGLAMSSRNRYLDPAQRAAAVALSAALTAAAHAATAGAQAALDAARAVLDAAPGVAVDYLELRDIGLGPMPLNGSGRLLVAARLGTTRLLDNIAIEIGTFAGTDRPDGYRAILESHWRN", "experiment": "Inhibition of Mycobacterium tuberculosis pantothenate synthetase at 100 uM"}, "Pantothenate synthetase": {"biological_target": "T2, Pantothenate synthetase (Mycobacterium tuberculosis, UniProt P9WIL5)", "T2 sequence (P9WIL5 whole entry)": "T1 sequence (whole entry)", "experiment": "Inhibition of Mycobacterium tuberculosis pantothenate synthetase"}, "[2]": {"tested_on": "Mycobacterium tuberculosis", "experiment": "Antibacterial activity against Mycobacterium tuberculosis at 128 uM by MABA assay", "format": "functional"}, "[3]": {"tested_on": "Mycobacterium tuberculosis", "experiment": "Antibacterial activity against Mycobacterium tuberculosis at 128 uM by LORA assay", "format": "functional"}},
  "data": [
    {"smiles": "CC(C)(C)C1CCc2onc(C(=O)Nc3cnn(Cc4ccc(C(=O)NCCc5ccccc5)cc4)c3)c2C1", "note": "(centres undefined)", "values": [
      {"measurement": "inhibition", "setting": "[1]", "value": 78, "unit": "%"},
      {"measurement": "IC50", "setting": "Pantothenate synthetase", "value": 140, "unit": "nM"},
      {"measurement": "inhibition at 128 µM", "setting": "[2]", "value": 19, "unit": "%"},
      {"measurement": "inhibition at 128 µM", "setting": "[3]", "value": 11, "unit": "%"}
    ]},
    {"smiles": "CC(C)(C)C1CCc2onc(C(=O)Nc3cnn(Cc4ccc(F)cc4)c3)c2C1", "note": "(centres undefined)", "values": [
      {"measurement": "inhibition", "setting": "[1]", "value": 98, "unit": "%"},
      {"measurement": "IC50", "setting": "Pantothenate synthetase", "value": 150, "unit": "nM"},
      {"measurement": "inhibition at 128 µM", "setting": "[2]", "value": 0, "unit": "%"},
      {"measurement": "inhibition at 128 µM", "setting": "[3]", "value": 0, "unit": "%"}
    ]},
    {"smiles": "CC(C)(C)OC(=O)c1ccc(Cn2cc(NC(=O)c3noc4c3CC(C(C)(C)C)CC4)cn2)cc1", "note": "(centres undefined)", "values": [
      {"measurement": "inhibition", "setting": "[1]", "value": 79, "unit": "%"},
      {"measurement": "IC50", "setting": "Pantothenate synthetase", "value": 250, "unit": "nM"}
    ]},
    {"smiles": "CC(C)(C)C1CCc2onc(C(=O)Nc3cnn(Cc4ccc(C(=O)NCc5ccccc5)cc4)c3)c2C1", "note": "(centres undefined)", "values": [
      {"measurement": "inhibition", "setting": "[1]", "value": 82, "unit": "%"},
      {"measurement": "IC50", "setting": "Pantothenate synthetase", "value": 210, "unit": "nM"},
      {"measurement": "inhibition at 128 µM", "setting": "[2]", "value": 54, "unit": "%"},
      {"measurement": "inhibition at 128 µM", "setting": "[3]", "value": 46, "unit": "%"}
    ]},
    {"smiles": "O=C(Nc1cnn(Cc2ccc(Cl)cc2Cl)c1)c1noc2c1CCCC2", "values": [
      {"measurement": "inhibition", "setting": "[1]", "value": 18, "unit": "%"},
      {"measurement": "inhibition at 128 µM", "setting": "[2]", "value": 70, "unit": "%"},
      {"measurement": "inhibition at 128 µM", "setting": "[3]", "value": 53, "unit": "%"}
    ]},
    {"smiles": "CC(C)(C)C1CCc2onc(C(=O)O)c2C1", "note": "(centres undefined)", "values": [
      {"measurement": "inhibition", "setting": "[1]", "value": 12, "unit": "%"},
      {"measurement": "inhibition at 128 µM", "setting": "[2]", "value": 5, "unit": "%"},
      {"measurement": "inhibition at 128 µM", "setting": "[3]", "value": 11, "unit": "%"}
    ]},
    {"smiles": "CC(C)(C)C1CCc2onc(C(=O)Nc3cnn(Cc4ccccc4Br)c3)c2C1", "note": "(centres undefined)", "values": [
      {"measurement": "inhibition", "setting": "[1]", "value": 94, "unit": "%"},
      {"measurement": "IC50", "setting": "Pantothenate synthetase", "value": 140, "unit": "nM"},
      {"measurement": "inhibition at 128 µM", "setting": "[2]", "value": 73, "unit": "%"},
      {"measurement": "inhibition at 128 µM", "setting": "[3]", "value": 24, "unit": "%"}
    ]},
    {"smiles": "COC(=O)c1ccc(Cn2cc(NC(=O)c3noc4c3CC(C(C)(C)C)CC4)cn2)cc1", "note": "(centres undefined)", "values": [
      {"measurement": "inhibition", "setting": "[1]", "value": 100, "unit": "%"},
      {"measurement": "IC50", "setting": "Pantothenate synthetase", "value": 160, "unit": "nM"},
      {"measurement": "inhibition at 128 µM", "setting": "[2]", "value": 48, "unit": "%"},
      {"measurement": "inhibition at 128 µM", "setting": "[3]", "value": 0, "unit": "%"}
    ]},
    {"smiles": "CC(C)(C)C1CCc2onc(C(=O)Nc3cnn(Cc4ccc(C(=O)O)cc4)c3)c2C1", "note": "(centres undefined)", "values": [
      {"measurement": "inhibition", "setting": "[1]", "value": 99, "unit": "%"},
      {"measurement": "IC50", "setting": "Pantothenate synthetase", "value": 460, "unit": "nM"},
      {"measurement": "inhibition at 128 µM", "setting": "[2]", "value": 41, "unit": "%"},
      {"measurement": "inhibition at 128 µM", "setting": "[3]", "value": 2, "unit": "%"}
    ]},
    {"smiles": "CC(C)(C)C1CCc2onc(C(=O)Nc3cn[nH]c3)c2C1", "note": "(centres undefined)", "values": [
      {"measurement": "inhibition", "setting": "[1]", "value": 43, "unit": "%"},
      {"measurement": "IC50", "setting": "Pantothenate synthetase", "value": 61000, "unit": "nM"},
      {"measurement": "inhibition at 128 µM", "setting": "[2]", "value": 60, "unit": "%"},
      {"measurement": "inhibition at 128 µM", "setting": "[3]", "value": 4, "unit": "%"}
    ]},
    {"smiles": "Cc1ccccc1Cn1cc(NC(=O)c2noc3c2CC(C(C)(C)C)CC3)cn1", "note": "(centres undefined)", "values": [
      {"measurement": "inhibition", "setting": "[1]", "value": 89, "unit": "%"},
      {"measurement": "IC50", "setting": "Pantothenate synthetase", "value": 120, "unit": "nM"},
      {"measurement": "inhibition at 128 µM", "setting": "[2]", "value": 46, "unit": "%"},
      {"measurement": "inhibition at 128 µM", "setting": "[3]", "value": 15, "unit": "%"}
    ]},
    {"smiles": "CC(C)(C)C1CCc2onc(C(=O)Nc3cnn(Cc4ccc(Cl)cc4)c3)c2C1", "note": "(centres undefined)", "values": [
      {"measurement": "inhibition", "setting": "[1]", "value": 98, "unit": "%"},
      {"measurement": "IC50", "setting": "Pantothenate synthetase", "value": 140, "unit": "nM"}
    ]},
    {"smiles": "CC(C)(C)C1CCc2onc(C(=O)Nc3cnn(C(=O)c4c(Cl)cc(Cl)cc4Cl)c3)c2C1", "note": "(centres undefined)", "values": [
      {"measurement": "inhibition", "setting": "[1]", "value": 17, "unit": "%"},
      {"measurement": "inhibition at 128 µM", "setting": "[2]", "value": 34, "unit": "%"},
      {"measurement": "inhibition at 128 µM", "setting": "[3]", "value": 26, "unit": "%"}
    ]},
    {"smiles": "CC(C)(C)C1CCc2onc(C(=O)Nc3cnn(Cc4ccc(F)cc4F)c3)c2C1", "note": "(centres undefined)", "values": [
      {"measurement": "inhibition", "setting": "[1]", "value": 100, "unit": "%"},
      {"measurement": "IC50", "setting": "Pantothenate synthetase", "value": 130, "unit": "nM"},
      {"measurement": "inhibition at 128 µM", "setting": "[2]", "value": 56, "unit": "%"},
      {"measurement": "inhibition at 128 µM", "setting": "[3]", "value": 47, "unit": "%"}
    ]},
    {"smiles": "CC(C)(C)C1CCc2onc(C(=O)Nc3cnn(Cc4ccc5ccccc5c4)c3)c2C1", "note": "(centres undefined)", "values": [
      {"measurement": "inhibition", "setting": "[1]", "value": 97, "unit": "%"},
      {"measurement": "IC50", "setting": "Pantothenate synthetase", "value": 90, "unit": "nM"},
      {"measurement": "inhibition at 128 µM", "setting": "[2]", "value": 43, "unit": "%"}
    ]},
    {"smiles": "COc1ccc(Cc2noc(NC(=O)c3noc4c3CC(C(C)(C)C)CC4)c2C(N)=O)cc1", "note": "(centres undefined)", "values": [
      {"measurement": "inhibition", "setting": "[1]", "value": 79, "unit": "%"},
      {"measurement": "IC50", "setting": "Pantothenate synthetase", "value": 7130, "unit": "nM"},
      {"measurement": "inhibition at 128 µM", "setting": "[2]", "value": 14, "unit": "%"},
      {"measurement": "inhibition at 128 µM", "setting": "[3]", "value": 14, "unit": "%"}
    ]},
    {"smiles": "CC(C)(C)C1CCc2onc(C(=O)Nc3cnn(Cc4ccccc4I)c3)c2C1", "note": "(centres undefined)", "values": [
      {"measurement": "inhibition", "setting": "[1]", "value": 84, "unit": "%"},
      {"measurement": "IC50", "setting": "Pantothenate synthetase", "value": 160, "unit": "nM"},
      {"measurement": "inhibition at 128 µM", "setting": "[2]", "value": 70, "unit": "%"},
      {"measurement": "inhibition at 128 µM", "setting": "[3]", "value": 12, "unit": "%"}
    ]},
    {"smiles": "CC(C)(C)C1CCc2onc(C(=O)Nc3cnn(Cc4ccccc4)c3)c2C1", "note": "(centres undefined)", "values": [
      {"measurement": "inhibition", "setting": "[1]", "value": 100, "unit": "%"},
      {"measurement": "IC50", "setting": "Pantothenate synthetase", "value": 97, "unit": "nM"},
      {"measurement": "inhibition at 128 µM", "setting": "[2]", "value": 84, "unit": "%"},
      {"measurement": "inhibition at 128 µM", "setting": "[3]", "value": 62, "unit": "%"}
    ]}
  ]
}
